From patent publication US8722890B2 (AbbVie Inc., priority 2008, dated 2014)
Read-outs that look alike come from different tables or passages of the source.

What was measured:
[1] = target: Aurora C (Homo sapiens (Human), UniProt Q9UQB9); assay: Aurora C activity assay (time-resolved fluorescence); format: biochemical; conditions: Table 5; read-out: Aurora C HTRF IC50
Description: To determine Aurora A and C activity of representative compounds of the invention, Active Aurora A or C enzyme was incubated in wells of a 384 well plate with biotinylated STK substrate-2 (Upstate), 1 mM ATP, and various concentrations of inhibitors in a Hepes buffer, pH 7.4 containing MgCl2, sodium othrovanadate, and Triton X-100. After 1 hour, the reaction was stopped with EDTA and anti-phospho-STK antibody Europium Cryptate (Upstate) and SA-XL665 (Upstate) were added to detect the phosphopeptide. The amount of phosphorylation was determined by the time-resolved fluorescence ratio of signals at 665 nm and 615 nm. The IC50s were calculated by an exponential fit of the inhibition values with the inhibitor concentrations using Assay Explorer software.

[2] = target: cKIT (Homo sapiens (Human), UniProt P10721); assay: HTRF in vitro kinase assay, cKIT; format: biochemical; conditions: PDGFR family; 1 mM ATP
Description: (§1) To determine the activity of the various kinases, a homogenous time-resolved fluorescence (HTRF) in vitro kinase assay was used.
(§2) For example for KDR, cKIT, FLT1, CSF1R and FTL3, purified enzyme was mixed with 0.5 μM N-biotinylated substrate (Biotin-Ahx-[…]-amide (SEQ. ID. 1)), various concentrations of inhibitor in reaction buffer (50 mM HEPES, pH 7.1, 10 mM MgCl2, 2 mM MnCl2, 0.1% BSA and 1 mM DTT, 40 μL final volume), ATP (1 mM final conc.) in a black 384-well plate. […] The quenched reaction was allowed to stand at room temperature for 3 hours and was then read in a time-resolved fluorescence detector (InVision, Perkin-Elmer) at 620 nm and 665 nm sequentially with excitation.

[3] = target: Aurora B (Homo sapiens (Human), UniProt Q96GD4); assay: Aurora B activity assay (time-resolved fluorescence); format: biochemical; conditions: Table 3; 1 mM ATP
Description: After 1 hour, the reaction was stopped with EDTA and anti-phospho-histone H3 Europium Cryptate (Cis-Bio) and SA-APC (Phycolink, Prozyme) were added to detect the phosphopeptide. The amount of phosphorylation was determined by the time-resolved fluorescence ratio of signals at 665 nm and 615 nm. The IC50's were calculated by an exponential fit of the inhibition values with the inhibitor concentrations using Assay Explorer software.

[4] = target: CYP 3A4 (Homo sapiens (Human), UniProt P08684); assay: CYP 3A4 Assay (pooled human liver microsomes, midazolam)
Description: Assays (200 μL final volume) were carried out in NUNC polypropylene deep well plates in 50 mM potassium phosphate buffer, pH 7.4, using a microtiter plate shaker in a 37° C. incubator. […] A constant amount of dimethylsulfoxide (1%) was added to the incubations with the test compounds, and each analysis was performed in duplicate. For preincubation experiments (Pre), the microsomes, test compounds, and NADPH were mixed and incubated 30 minutes before addition of midazolam. For coincubation experiments (Co), the compounds, microsomes, and midazolam were mixed and the reaction initiated by addition of NADPH to the wells. In both protocols, the complete reaction was terminated after 10 minutes of shaking by addition of 100 μL of a 1/1 mixture of acetonitrile and methanol containing 0.33 μM 1-hydroxytriazolam.
For analysis, an aliquot of each well were transferred to an autosampler vial and 10 μL injected onto a Shimadzu LC-10A HPLC system equipped with a YMC-AQ (2.0×50 mm) column. The components were separated using a gradient of 10% acetonitrile −0.1% acetic acid to 70% acetonitrile −0.1% acetic acid at a flow rate of at 0.4 mL/minute over 5 minutes.

[5] = target: KDR (Homo sapiens (Human), UniProt P35968); assay: HTRF in vitro kinase assay, KDR; format: biochemical; conditions: VEGFR family; 1 mM ATP
Description: as §1, §2

Sequence of Aurora B (Q96GD4 whole entry): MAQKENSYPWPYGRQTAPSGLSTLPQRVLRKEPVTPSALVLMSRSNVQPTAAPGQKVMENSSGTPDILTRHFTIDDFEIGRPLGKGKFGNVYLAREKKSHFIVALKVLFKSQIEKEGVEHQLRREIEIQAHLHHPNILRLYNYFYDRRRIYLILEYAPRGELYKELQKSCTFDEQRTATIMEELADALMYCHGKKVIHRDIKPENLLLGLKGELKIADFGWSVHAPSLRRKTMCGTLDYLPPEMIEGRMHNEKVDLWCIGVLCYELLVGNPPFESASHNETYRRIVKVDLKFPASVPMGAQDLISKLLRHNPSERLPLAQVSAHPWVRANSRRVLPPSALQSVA
Sequence of Aurora B (Q9NQS7 826-918 partner): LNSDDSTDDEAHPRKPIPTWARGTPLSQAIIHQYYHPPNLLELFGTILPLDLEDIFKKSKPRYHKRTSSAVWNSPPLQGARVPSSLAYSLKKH
Sequence of CYP 3A4 (P08684 whole entry): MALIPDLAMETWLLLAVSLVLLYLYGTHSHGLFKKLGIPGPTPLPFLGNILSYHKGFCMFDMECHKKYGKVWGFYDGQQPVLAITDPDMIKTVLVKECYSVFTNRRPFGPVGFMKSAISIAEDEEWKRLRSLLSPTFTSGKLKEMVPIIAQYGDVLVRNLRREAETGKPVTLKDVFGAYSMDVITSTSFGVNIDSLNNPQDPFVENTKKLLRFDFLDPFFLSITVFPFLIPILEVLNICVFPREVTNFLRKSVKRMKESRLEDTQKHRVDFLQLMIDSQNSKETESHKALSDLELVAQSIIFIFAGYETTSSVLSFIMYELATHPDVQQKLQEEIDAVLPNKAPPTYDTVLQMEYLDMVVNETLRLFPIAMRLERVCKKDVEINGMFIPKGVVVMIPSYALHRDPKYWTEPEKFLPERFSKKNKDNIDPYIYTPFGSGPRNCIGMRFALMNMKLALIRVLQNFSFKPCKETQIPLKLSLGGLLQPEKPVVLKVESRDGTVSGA
Sequence of cKIT (P10721 544-976): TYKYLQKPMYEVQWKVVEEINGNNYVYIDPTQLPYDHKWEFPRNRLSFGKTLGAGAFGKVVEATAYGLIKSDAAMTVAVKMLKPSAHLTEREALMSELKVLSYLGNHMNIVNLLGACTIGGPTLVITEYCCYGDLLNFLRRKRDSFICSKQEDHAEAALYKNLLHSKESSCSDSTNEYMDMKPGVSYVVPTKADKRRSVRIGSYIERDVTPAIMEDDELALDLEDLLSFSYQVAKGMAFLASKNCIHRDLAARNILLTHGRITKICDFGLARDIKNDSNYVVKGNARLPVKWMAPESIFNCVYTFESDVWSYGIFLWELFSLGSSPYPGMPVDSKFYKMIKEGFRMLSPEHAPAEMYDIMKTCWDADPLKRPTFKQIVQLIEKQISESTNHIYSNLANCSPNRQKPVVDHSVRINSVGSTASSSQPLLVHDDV
Sequence of KDR (P35968 789-1354): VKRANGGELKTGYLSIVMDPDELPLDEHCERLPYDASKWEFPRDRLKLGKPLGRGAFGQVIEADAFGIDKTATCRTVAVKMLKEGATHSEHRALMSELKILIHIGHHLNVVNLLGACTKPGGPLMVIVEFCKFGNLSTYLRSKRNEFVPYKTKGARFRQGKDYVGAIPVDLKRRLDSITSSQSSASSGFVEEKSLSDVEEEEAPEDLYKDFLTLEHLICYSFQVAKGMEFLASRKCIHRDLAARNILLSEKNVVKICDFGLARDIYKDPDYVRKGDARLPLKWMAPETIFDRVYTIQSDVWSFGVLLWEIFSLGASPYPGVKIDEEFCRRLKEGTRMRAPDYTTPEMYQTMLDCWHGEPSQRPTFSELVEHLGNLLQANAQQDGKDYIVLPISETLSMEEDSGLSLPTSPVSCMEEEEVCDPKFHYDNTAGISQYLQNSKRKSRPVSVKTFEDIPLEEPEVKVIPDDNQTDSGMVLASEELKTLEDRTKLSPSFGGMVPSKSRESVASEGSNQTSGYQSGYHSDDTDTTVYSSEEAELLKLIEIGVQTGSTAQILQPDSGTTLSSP
Sequence of Aurora C (Q9UQB9 whole entry): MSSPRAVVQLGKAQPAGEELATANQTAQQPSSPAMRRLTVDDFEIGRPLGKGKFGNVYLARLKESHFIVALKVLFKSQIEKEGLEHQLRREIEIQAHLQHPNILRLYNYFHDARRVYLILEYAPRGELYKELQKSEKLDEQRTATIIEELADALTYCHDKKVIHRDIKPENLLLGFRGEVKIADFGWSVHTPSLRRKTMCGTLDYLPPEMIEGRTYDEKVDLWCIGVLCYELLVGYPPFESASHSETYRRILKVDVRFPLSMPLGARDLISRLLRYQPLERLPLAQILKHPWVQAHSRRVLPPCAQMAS

| IC50 [2] [nM] | IC50 [3] [nM] | SMILES | other results |
| --- | --- | --- | --- |
| – | – | Nc1ncc(-c2cnn(CCO)c2)c2scc(-c3ccc(NC(=O)Nc4cccc(F)c4)cc3)c12 [Example 1, N-(4-{4-amino-7-[1-(2-hydroxyethyl)-1H-pyrazol-4-yl]thieno[3,2-c]pyridin-3-yl}phenyl)-N′-(3-fluorophenyl)urea] | IC50 [1]: 1 nM |
| 27.3 | 7.87 | Nc1ncc(-c2cnn(CCO)c2)c2scc(-c3ccc(NC(=O)Nc4ccc(OC(F)F)cc4)cc3)c12 [Example 2, N-(4-{4-amino-7-[1-(2-hydroxyethyl)-1H-pyrazol-4-yl]thieno[3,2-c]pyridin-3-yl}phenyl)-N′-[4-(difluoromethoxy)phenyl]urea] | – |
| – | 11.2 | Cc1cccc(NC(=O)Nc2ccc(-c3csc4c(-c5cnn(C[C@H](C)O)c5)cnc(N)c34)cc2)c1 [Example 3, N-[4-(4-amino-7-{1-[(2S)-2-hydroxypropyl]-1H-pyrazol-4-yl}thieno[3,2-c]pyridin-3-yl)phenyl]-N′-(3-methylphenyl)urea] | – |
| – | 14.8 | COc1ccc(NC(=O)Nc2ccc(-c3csc4c(-c5cnn(CC(C)(C)O)c5)cnc(N)c34)cc2)cc1 [Example 4, N-(4-{4-amino-7-[1-(2-hydroxy-2-methylpropyl)-1H-pyrazol-4-yl]thieno[3,2-c]pyridin-3-yl}phenyl)-N′-(4-methoxyphenyl)urea] | IC50 ([4]; read-out: CYP 3A4 IC50, coincubation (Co), Co: reaction initiated by addition of NADPH, 2 μM midazolam): > 10000 nM; IC50 ([4]; read-out: CYP 3A4 IC50, preincubation (Pre), Pre: microsomes, compound, NADPH incubated 30 minutes before midazolam): > 10000 nM; IC50 [5]: 5.01 nM |
| 12.6 | – | COc1ccc(NC(=O)Nc2ccc(-c3csc4c(-c5cnn(C[C@H](O)CO)c5)cnc(N)c34)cc2)cc1 [Example 5, N-[4-(4-amino-7-{1-[(2S)-2,3-dihydroxypropyl]-1H-pyrazol-4-yl}thieno[3,2-c]pyridin-3-yl)phenyl]-N′-(4-methoxyphenyl)urea] | – |
| – | 8.44 | Cc1cccc(NC(=O)Nc2ccc(-c3csc4c(-c5cn[nH]c5)cnc(N)c34)cc2)c1 [Example 6, N-{4-[4-amino-7-(1H-pyrazol-4-yl)thieno[3,2-c]pyridin-3-yl]phenyl}-N′-(3-methylphenyl)urea, reference compound] | – |
